# Assay results from patent US9580463B2 (BRISTOL-MYERS SQUIBB COMPANY, priority 2013, dated 2017).
# pEC50: −log10 of the molar value.
# Experiments:
# [1] = tested on: HCV genotype 1b (Con1) replicon in HUH-7 cells; assay: HCV replicon luciferase reporter assay, genotype 1b; assay type: cell-based; conditions: Hepatitis C virus, 72 h, genotype 1b replicon, 3 days incubation, read-out: LE_1b (EC50, range)
# In short: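 Twenty-point, threefold compound titrations (0.5% DMSO) were incubated 3 days at 37 °C with 3.0×10^3 HUH-7 cells/well in 4% FCS. The cells stably carried luciferase replicons: genotype 1b Con1 (S1179I) or 1a H77 (NS3 P1496L, NS5A S2204I). Renilla signal was read after 2 h with 7.5 μM EnduRen, and EC50 was taken from a four-parameter logistic fit. Cytotoxicity (CC50) was measured by Cell Titer-Blue, 8 h.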
# [2] = tested on: HCV genotype 1a (H77 strain) replicon in HUH-7 cells; assay: HCV replicon luciferase reporter assay, genotype 1a; assay type: cell-based; conditions: Hepatitis C virus, 72 h, genotype 1a replicon, 3 days incubation, read-out: LE_1a (EC50, range)
# Excerpt: An HCV replicon whole cell system was established as described by Lohmann V, Korner F, Koch J, Herian U, Theilmann L, Bartenschlager R., Science 285(5424):110-3 (1999) and modified to introduce a luciferase reporter, as first described by Krieger et al (Krieger N, Lohmann V, and Bartenschlager R, J. Virol. 75(10):4614-4624 (2001)). CDNA encoding a humanized form of the Renilla luciferase gene and a linker sequence fused directly to the 3′-end of the luciferase gene were introduced into the replicon construct using an Asc1 restriction site located in core, directly upstream of the neomycin marker gene. The adaptive mutation at position 1179 (serine to isoleucine) was also introduced (Blight K J, Kolykhalov, A A, Rice, C M, Science 290(5498):1972-1974). A stable cell line constitutively expressing this HCV replicon construct was generated by first linearizing plasmid DNAs with ScaI. RNA transcripts were synthesized in vitro using the T7 MegaScript transcription kit (Ambion, Austin, Tex.) according to manufacturer's directions. In vitro transcripts of the cDNA were transfected into the human hepatoma cell line, HUH-7. […] Resulting cell lines were characterized for positive and negative strand RNA production and protein production over time.
# A stable HCV replicon luciferase reporter cell line representing the genotype 1a H77 strain (Yanagi M, Purcell R H, Emerson S U, et al. Transcripts from a single full-length cDNA clone of hepatitis C virus are infectious when directly transfected into the liver of a chimpanzee. Proc Natl Acad Sci USA 1997; 94(16):8738-8743) was generated as described previously for the genotype 1b (Con1) replicon luciferase cell line. The replicon construct was modified by introducing mutations were introduced into the genes encoding the NS3 helicase domain (proline replaced by leucine at position 1496) and NS5A (serine to isoleucine at position 2204) to improve replication in cell culture.
# HCV replicon luciferase assays were developed to monitor the inhibitory effects of compounds described in the disclosure on HCV genotypes 1a and 1b viral replication. HUH-7 cells, constitutively expressing the HCV replicon, were grown in Dulbecco's Modified Eagle Media (DMEM) (Gibco-BRL) containing 10% Fetal calf serum (FCS) (Sigma) and 1 mg/mL G418 (Gibco-BRL). Compounds were serially diluted 3 folds in DMSO for a twenty-point titration and subsequently transferred to sterile 384-well tissue-culture treated plates (Corning cat #3571). The plates were then seeded with 50 μL of cells at a density of 3.0×10^3 cells/well in DMEM containing 4% FCS (final DMSO concentration at 0.5%). After 3 days incubation at 37° C., cells were analyzed for Renilla Luciferase activity using the EnduRen as substrate (Promega cat #E6485). The EnduRen substrate was diluted in DMEM and then added to the plates to a final concentration of 7.5 μM. The plates were incubated for 2 hrs at 37° C. and then read immediately for 30 seconds with Viewlux Imager (PerkinElmer) using a luminescence program. To assess cytotoxicity of compounds, CC50 values were generated by multiplexing the EnduRen-containing plates with Cell Titer-Blue (Promega, cat # G8082). Cell-Titer Blue (3 μL) was added to each well and incubated for 8 hrs at 37° C. The fluorescence signal from each well was read, with an excitation wavelength at 525/10 nm and an emission wavelength of 598/10 nm, using the Viewlux Imager.
# The EC50 values for compounds were calculated by using a four-parameter logistic equation: y=A+((B−A)/(1+((C/x)^D))), where A and B denotes minimal and maximal % inhibition, respectively, C is the EC50, D is the hill slope and x represents compound concentration.
Compound,pEC50 [1],pEC50 [2]
"COC[C@@H]1C[C@H](C)CC/C=C\[C@@H]2C[C@@]2(C(=O)NS(=O)(=O)C2(C)CC2)NC(=O)[C@@H]2C[C@@H](Oc3nc4cc(OC)ccc4nc3C(C)C)CN2C(=O)[C@H]1NC(=O)OC(C)(C)C(F)(F)F [Compound 1034, 1,1,1-trifluoro-2-methylpropan-2-yl ((2R,6S,7R,9R,13aS,14aR,16aS,Z)-2-((3-isopropyl-7-methoxyquinoxalin-2-yl)oxy)-7-(methoxymethyl)-9-methyl-14a-(((1-methylcyclopropyl)sulfonyl)carbamoyl)-5,16-dioxo-1,2,3,5,6,7,8,9,10,11,13a,14,14a,15,16,16a-hexadecahydrocyclopropa[e]pyrrolo[1,2-a][1,4]diazacyclopentadecin-6-yl)carbamate]",9.00 to 9.29,8.30 to 9.00
"COC[C@@H]1C[C@H](C)CC/C=C\[C@@H]2C[C@@]2(C(=O)NS(=O)(=O)C2CC2)NC(=O)[C@@H]2C[C@@H](Oc3ncc(OC)c4ccccc34)CN2C(=O)[C@H]1NC(=O)OC(C)(C)C [Compound 1003, tert-butyl ((2R,6S,7R,9R,13aS,14aR,16aS,Z)-14a-((cyclopropylsulfonyl)carbamoyl)-2-((4-methoxyisoquinolin-1-yl)oxy)-7-(methoxymethyl)-9-methyl-5,16-dioxo-1,2,3,5,6,7,8,9,10,11,13a,14,14a,15,16,16a-hexadecahydrocyclopropa[e]pyrrolo[1,2-a][1,4]diazacyclopentadecin-6-yl)carbamate]",9.30 to 10.00,9.00 to 9.29
"COC[C@@H]1C[C@@H](C)CC/C=C\[C@@H]2C[C@@]2(C(=O)NS(=O)(=O)C2(C)CC2)NC(=O)[C@@H]2C[C@@H](Oc3nc4cc(OC)ccc4nc3C(F)(F)F)CN2C(=O)[C@H]1NC(=O)OC(C)(C)C [Compound 1027, tert-butyl ((2R,6S,7R,9S,13aS,14aR,16aS,Z)-2-((7-methoxy-3-(trifluoromethyl)quinoxalin-2-yl)oxy)-7-(methoxymethyl)-9-methyl-14a-(((1-methylcyclopropyl)sulfonyl)carbamoyl)-5,16-dioxo-1,2,3,5,6,7,8,9,10,11,13a,14,14a,15,16,16a-hexadecahydrocyclopropa[e]pyrrolo[1,2-a][1,4]diazacyclopentadecin-6-yl)carbamate]",8.30 to 9.00,7.46 to 8.30
"COC[C@@H]1C[C@H](C)CC/C=C\[C@@H]2C[C@@]2(C(=O)NS(=O)(=O)C2(C)CC2)NC(=O)[C@@H]2C[C@@H](Oc3nccc4cc(OC)ccc34)CN2C(=O)[C@H]1NC(=O)OC(C)(C)C(F)(F)F [Compound 1014, 1,1,1-trifluoro-2-methylpropan-2-yl ((2R,6S,7R,9R,13aS,14aR,16aS,Z)-2-((6-methoxyisoquinolin-1-yl)oxy)-7-(methoxymethyl)-9-methyl-14a-(((1-methylcyclopropyl)sulfonyl)carbamoyl)-5,16-dioxo-1,2,3,5,6,7,8,9,10,11,13a,14,14a,15,16,16a-hexadecahydrocyclopropa[e]pyrrolo[1,2-a][1,4]diazacyclopentadecin-6-yl)carbamate]",9.00 to 9.29,8.30 to 9.00
COC[C@@H]1C[C@H](C)CC/C=C\[C@@H]2C[C@@]2(C(=O)NS(=O)(=O)C2(CF)CC2)NC(=O)[C@@H]2C[C@@H](Oc3nc4cc(OC)ccc4nc3C(C)C)CN2C(=O)[C@H]1NC(=O)OC(C)(C)C(F)(F)F [Compound 1039],8.30 to 9.00,7.46 to 8.30
"COC[C@@H]1C[C@@H](C)CC/C=C\[C@@H]2C[C@@]2(C(=O)NS(=O)(=O)C2(C)CC2)NC(=O)[C@@H]2C[C@@H](Oc3nccc4cc(OC)ccc34)CN2C(=O)[C@H]1NC(=O)OC(C)(C)C [Compound 1006, tert-butyl ((2R,6S,7R,9S,13aS,14aR,16aS,Z)-2-((6-methoxyisoquinolin-1-yl)oxy)-7-(methoxymethyl)-9-methyl-14a-(((1-methylcyclopropyl)sulfonyl)carbamoyl)-5,16-dioxo-1,2,3,5,6,7,8,9,10,11,13a,14,14a,15,16,16a-hexadecahydrocyclopropa[e]pyrrolo[1,2-a][1,4]diazacyclopentadecin-6-yl)carbamate]",8.30 to 9.00,7.46 to 8.30
"COC[C@@H]1C[C@@H](C)CC/C=C\[C@@H]2C[C@@]2(C(=O)NS(=O)(=O)C2(C)CC2)NC(=O)[C@@H]2C[C@@H](Oc3nc4cc(OC)ccc4nc3C(C)C)CN2C(=O)[C@H]1NC(=O)OC(C)(C)C(F)(F)F [Compound 1033, 1,1,1-trifluoro-2-methylpropan-2-yl ((2R,6S,7R,9S,13aS,14aR,16aS,Z)-2-((3-isopropyl-7-methoxyquinoxalin-2-yl)oxy)-7-(methoxymethyl)-9-methyl-14a-(((1-methylcyclopropyl)sulfonyl)carbamoyl)-5,16-dioxo-1,2,3,5,6,7,8,9,10,11,13a,14,14a,15,16,16a-hexadecahydrocyclopropa[e]pyrrolo[1,2-a][1,4]diazacyclopentadecin-6-yl)carbamate]",8.30 to 9.00,7.46 to 8.30
"COC[C@@H]1CCCC/C=C\[C@@H]2C[C@@]2(C(=O)NS(=O)(=O)C2(C)CC2)NC(=O)[C@@H]2C[C@@H](Oc3ncc(OC)c4ccccc34)CN2C(=O)[C@H]1NC(=O)OC(C)(C)C [Compound 1007, tert-butyl ((2R,6S,7R,13aS,14aR,16aS,Z)-2-((4-methoxyisoquinolin-1-yl)oxy)-7-(methoxymethyl)-14a-(((1-methylcyclopropyl)sulfonyl)carbamoyl)-5,16-dioxo-1,2,3,5,6,7,8,9,10,11,13a,14,14a,15,16,16a-hexadecahydrocyclopropa[e]pyrrolo[1,2-a][1,4]diazacyclopentadecin-6-yl)carbamate]",9.00 to 9.29,8.30 to 9.00
"COC[C@@H]1C[C@@H](C)CC/C=C\[C@@H]2C[C@@]2(C(=O)NS(=O)(=O)C2CC2)NC(=O)[C@@H]2C[C@@H](Oc3nccc4cc(OC)ccc34)CN2C(=O)[C@H]1NC(=O)OC(C)(C)C(F)(F)F [Compound 1018, 1,1,1-trifluoro-2-methylpropan-2-yl ((2R,6S,7R,9S,13aS,14aR,16aS,Z)-14a-((cyclopropylsulfonyl)carbamoyl)-2-((6-methoxyisoquinolin-1-yl)oxy)-7-(methoxymethyl)-9-methyl-5,16-dioxo-1,2,3,5,6,7,8,9,10,11,13a,14,14a,15,16,16a-hexadecahydrocyclopropa[e]pyrrolo[1,2-a][1,4]diazacyclopentadecin-6-yl)carbamate]",8.30 to 9.00,8.30 to 9.00
"COC[C@@H]1C[C@@H](C)CC/C=C\[C@@H]2C[C@@]2(C(=O)NS(=O)(=O)C2(C)CC2)NC(=O)[C@@H]2C[C@@H](Oc3nccc4cc(OC)ccc34)CN2C(=O)[C@H]1NC(=O)OC(C)(C)C(F)(F)F [Compound 1015, 1,1,1-trifluoro-2-methylpropan-2-yl ((2R,6S,7R,9S,13aS,14aR,16aS,Z)-2-((6-methoxyisoquinolin-1-yl)oxy)-7-(methoxymethyl)-9-methyl-14a-(((1-methylcyclopropyl)sulfonyl)carbamoyl)-5,16-dioxo-1,2,3,5,6,7,8,9,10,11,13a,14,14a,15,16,16a-hexadecahydrocyclopropa[e]pyrrolo[1,2-a][1,4]diazacyclopentadecin-6-yl)carbamate]",8.30 to 9.00,8.30 to 9.00
